# Source: paper PMC9541843, “N‐terminal alterations turn the gut hormone GLP‐2 into an antagonist with gradual loss of GLP‐2 receptor selectivity towards more GLP‐1 receptor interaction” (British Journal of Pharmacology, 2022)
# Read-outs that look alike come from different tables or passages of the source. Peptide text beside a SMILES is read from it. * marks the point of attachment. C16 diacid = O=C(O)CCCCCCCCCCCCCCC(=O)*
# What was measured:
# human GLP‐2R [1] = target: T1, human GLP‐2R (Homo sapiens, UniProt O95838); assay: cAMP accumulation, inhibition of GLP‐2‐induced activation; details: for IC50: SEM; for cAMP inhibition Log IC50 ± SEM / cAMP inhibition IC50: COS‐7 cells, human GLP‐2R, n = 3 in duplicate; for cAMP inhibition Log IC50 ± SEM: 10 min preincubation with antagonist, then GLP‐2 for 20 min, mean ± SEM; for cAMP inhibition IC50: inhibition of GLP‐2‐induced cAMP
# T1 sequence (O95838 1-553): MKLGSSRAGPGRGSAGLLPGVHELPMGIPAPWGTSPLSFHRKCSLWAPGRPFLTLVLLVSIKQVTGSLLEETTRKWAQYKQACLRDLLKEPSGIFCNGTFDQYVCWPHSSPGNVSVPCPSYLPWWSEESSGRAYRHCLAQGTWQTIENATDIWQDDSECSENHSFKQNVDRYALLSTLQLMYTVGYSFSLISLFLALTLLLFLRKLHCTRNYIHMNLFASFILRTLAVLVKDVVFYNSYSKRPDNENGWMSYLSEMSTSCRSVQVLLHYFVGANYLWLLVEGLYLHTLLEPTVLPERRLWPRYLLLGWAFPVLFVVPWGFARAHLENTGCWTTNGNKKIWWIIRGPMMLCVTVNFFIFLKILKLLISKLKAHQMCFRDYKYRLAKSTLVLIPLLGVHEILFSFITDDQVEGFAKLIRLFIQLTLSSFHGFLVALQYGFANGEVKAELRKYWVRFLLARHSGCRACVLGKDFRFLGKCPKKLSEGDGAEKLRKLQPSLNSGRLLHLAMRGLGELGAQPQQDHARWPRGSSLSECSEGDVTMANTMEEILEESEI
# human GLP‐2R [2] = target: T1, human GLP‐2R; assay: cell-based; details: SEM
# human GLP‐2R [3] = target: T1, human GLP‐2R; assay: cAMP accumulation, agonism (HitHunter cAMP assay); details: for Emax: COS-7, read-out: cAMP activation Emax ± SEM; for cAMP activation Log EC50 ± SEM / cAMP activation EC50: COS‐7 cells, human GLP‐2R, 30 min at 37°C, n = 3 in duplicate; for cAMP activation Log EC50 ± SEM: mean ± SEM
# human GLP‐1R = human GLP‐1R (Homo sapiens, UniProt P43220); assay: cAMP accumulation, inhibition of GLP‐1‐mediated response (selectivity); details: COS-7, read-out: Inhibition of GLP‐1‐mediated cAMP response at the human GLP‐1R
# Sequence of human GLP‐1R (P43220 24-463): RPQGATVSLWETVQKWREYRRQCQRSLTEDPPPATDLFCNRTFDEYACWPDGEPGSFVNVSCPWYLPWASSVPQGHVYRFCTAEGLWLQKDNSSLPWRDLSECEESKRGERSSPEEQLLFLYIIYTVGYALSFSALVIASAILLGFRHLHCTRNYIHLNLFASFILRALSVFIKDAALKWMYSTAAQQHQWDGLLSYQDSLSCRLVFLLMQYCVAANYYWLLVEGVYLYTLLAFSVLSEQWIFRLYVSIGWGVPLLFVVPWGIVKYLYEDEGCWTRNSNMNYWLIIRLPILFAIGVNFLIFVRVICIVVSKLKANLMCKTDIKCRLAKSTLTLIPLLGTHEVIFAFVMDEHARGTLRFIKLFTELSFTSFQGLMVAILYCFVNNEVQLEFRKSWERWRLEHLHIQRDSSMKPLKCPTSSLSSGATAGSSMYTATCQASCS
IC50 (human GLP‐2R [1]),IC50 (human GLP‐2R [2]),Emax (human GLP‐2R [3]; SEM),EC50 (human GLP‐2R [3]; SEM),cAMP inhibition Log IC50 ± SEM (human GLP‐2R [1]),cAMP inhibition IC50 (human GLP‐2R [1]),inhibition at 1 µM (human GLP‐1R),cAMP activation Log EC50 ± SEM (human GLP‐2R [3]),cAMP activation EC50 (human GLP‐2R [3]),EC50 (human GLP‐2R [3]),SMILES
,79.4 nM,19 ± 3%,63.1 nM,No inhibition,No inhibition,,,,,CC[C@H](C)[C@H](NC(=O)[C@H](Cc1ccccc1)NC(=O)[C@H](CC(=O)O)NC(=O)[C@H](CCCNC(=N)N)NC(=O)[C@H](C)NC(=O)[C@H](C)NC(=O)[C@H](CC(C)C)NC(=O)[C@H](CC(N)=O)NC(=O)[C@H](CC(=O)O)NC(=O)[C@H](CC(C)C)NC(=O)[C@@H](NC(=O)[C@@H](NC(=O)[C@H](CC(N)=O)NC(=O)[C@H](CCSC)NC(=O)[C@H](CCC(=O)O)NC(=O)[C@@H](N)CC(=O)O)[C@@H](C)O)[C@@H](C)CC)C(=O)N[C@@H](CC(N)=O)C(=O)N[C@@H](Cc1c[nH]c2ccccc12)C(=O)N[C@@H](CC(C)C)C(=O)N[C@H](C(=O)N[C@@H](CCC(N)=O)C(=O)N[C@H](C(=O)N[C@@H](CCCCN)C(=O)N[C@H](C(=O)N[C@H](C(=O)N[C@@H](CC(=O)O)C(=O)O)[C@@H](C)O)[C@@H](C)CC)[C@@H](C)O)[C@@H](C)CC [GLP‐2(8‐33)] (H-DEMNTILDNLAARDFINWLIQTKITD-OH)
,79.4 nM,65 ± 3.6%,200 nM,No inhibition,No inhibition,,,,,CC[C@H](C)[C@H](NC(=O)[C@H](Cc1ccccc1)NC(=O)[C@H](CC(=O)O)NC(=O)[C@H](CCCNC(=N)N)NC(=O)[C@H](C)NC(=O)[C@H](C)NC(=O)[C@H](CC(C)C)NC(=O)[C@H](CC(N)=O)NC(=O)[C@H](CC(=O)O)NC(=O)[C@H](CC(C)C)NC(=O)[C@@H](NC(=O)[C@@H](NC(=O)[C@H](CC(N)=O)NC(=O)[C@H](CCSC)NC(=O)[C@@H](N)CCC(=O)O)[C@@H](C)O)[C@@H](C)CC)C(=O)N[C@@H](CC(N)=O)C(=O)N[C@@H](Cc1c[nH]c2ccccc12)C(=O)N[C@@H](CC(C)C)C(=O)N[C@H](C(=O)N[C@@H](CCC(N)=O)C(=O)N[C@H](C(=O)N[C@@H](CCCCN)C(=O)N[C@H](C(=O)N[C@H](C(=O)N[C@@H](CC(=O)O)C(=O)O)[C@@H](C)O)[C@@H](C)CC)[C@@H](C)O)[C@@H](C)CC [GLP‐2(9‐33)] (H-EMNTILDNLAARDFINWLIQTKITD-OH)
407 nM,126 nM,,,,,,No activation,No activation,,CC[C@H](C)[C@H](NC(=O)[C@H](Cc1ccccc1)NC(=O)[C@H](CC(=O)O)NC(=O)[C@H](CCCNC(=N)N)NC(=O)[C@H](C)NC(=O)[C@H](C)NC(=O)[C@H](CC(C)C)NC(=O)[C@H](CC(N)=O)NC(=O)[C@H](CC(=O)O)NC(=O)[C@H](CC(C)C)NC(=O)[C@@H](NC(=O)[C@@H](NC(=O)[C@H](CC(N)=O)NC(=O)[C@@H](N)CCSC)[C@@H](C)O)[C@@H](C)CC)C(=O)N[C@@H](CC(N)=O)C(=O)N[C@@H](Cc1c[nH]c2ccccc12)C(=O)N[C@@H](CC(C)C)C(=O)N[C@H](C(=O)N[C@@H](CCC(N)=O)C(=O)N[C@H](C(=O)N[C@@H](CCCCN)C(=O)N[C@H](C(=O)N[C@H](C(=O)N[C@@H](CC(=O)O)C(=O)O)[C@@H](C)O)[C@@H](C)CC)[C@@H](C)O)[C@@H](C)CC [GLP‐2(10‐33)] (H-MNTILDNLAARDFINWLIQTKITD-OH)
,794 nM,,,No inhibition,No inhibition,,No activation,No activation,,CC[C@H](C)[C@H](NC(=O)[C@H](Cc1ccccc1)NC(=O)[C@H](CC(=O)O)NC(=O)[C@H](CCCNC(=N)N)NC(=O)[C@H](C)NC(=O)[C@H](C)NC(=O)[C@H](CC(C)C)NC(=O)[C@H](CC(N)=O)NC(=O)[C@H](CC(=O)O)NC(=O)[C@H](CC(C)C)NC(=O)[C@@H](NC(=O)[C@@H](NC(=O)[C@@H](N)CC(N)=O)[C@@H](C)O)[C@@H](C)CC)C(=O)N[C@@H](CC(N)=O)C(=O)N[C@@H](Cc1c[nH]c2ccccc12)C(=O)N[C@@H](CC(C)C)C(=O)N[C@H](C(=O)N[C@@H](CCC(N)=O)C(=O)N[C@H](C(=O)N[C@@H](CCCCN)C(=O)N[C@H](C(=O)N[C@H](C(=O)N[C@@H](CC(=O)O)C(=O)O)[C@@H](C)O)[C@@H](C)CC)[C@@H](C)O)[C@@H](C)CC [GLP‐2(11‐33)] (H-NTILDNLAARDFINWLIQTKITD-OH)

# Continued, compound first:
SMILES,IC50 (human GLP‐2R [1]),IC50 (human GLP‐2R [2]),Emax (human GLP‐2R [3]; SEM),EC50 (human GLP‐2R [3]; SEM),cAMP inhibition Log IC50 ± SEM (human GLP‐2R [1]),cAMP inhibition IC50 (human GLP‐2R [1]),inhibition at 1 µM (human GLP‐1R),cAMP activation Log EC50 ± SEM (human GLP‐2R [3]),cAMP activation EC50 (human GLP‐2R [3]),EC50 (human GLP‐2R [3])
CC[C@H](C)[C@H](NC(=O)[C@H](Cc1ccccc1)NC(=O)[C@H](CC(=O)O)NC(=O)[C@H](CCCNC(=N)N)NC(=O)[C@H](C)NC(=O)[C@H](C)NC(=O)[C@H](CC(C)C)NC(=O)[C@H](CC(N)=O)NC(=O)[C@H](CC(=O)O)NC(=O)[C@H](CC(C)C)NC(=O)[C@@H](NC(=O)[C@@H](NC(=O)[C@H](CC(N)=O)NC(=O)[C@H](CCSC)NC(=O)[C@H](CCC(=O)O)NC(=O)[C@H](CC(=O)O)NC(=O)[C@H](CO)NC(=O)[C@H](Cc1ccccc1)NC(=O)[C@@H](N)CO)[C@@H](C)O)[C@@H](C)CC)C(=O)N[C@@H](CC(N)=O)C(=O)N[C@@H](Cc1c[nH]c2ccccc12)C(=O)N[C@@H](CC(C)C)C(=O)N[C@H](C(=O)N[C@@H](CCC(N)=O)C(=O)N[C@H](C(=O)N[C@@H](CCCCN)C(=O)N[C@H](C(=O)N[C@H](C(=O)N[C@@H](CC(=O)O)C(=O)O)[C@@H](C)O)[C@@H](C)CC)[C@@H](C)O)[C@@H](C)CC [GLP‐2(5‐33)] (H-SFSDEMNTILDNLAARDFINWLIQTKITD-OH),200 nM,12.6 nM,40 ± 4.1%,25.1 nM,,,,,,
CC[C@H](C)[C@H](NC(=O)[C@H](Cc1ccccc1)NC(=O)[C@H](CC(=O)O)NC(=O)[C@H](CCCNC(=N)N)NC(=O)[C@H](C)NC(=O)[C@H](C)NC(=O)[C@H](CC(C)C)NC(=O)[C@H](CC(N)=O)NC(=O)[C@H](CC(=O)O)NC(=O)[C@H](CC(C)C)NC(=O)[C@@H](NC(=O)[C@@H](NC(=O)[C@H](CC(N)=O)NC(=O)[C@H](CCSC)NC(=O)[C@H](CCC(=O)O)NC(=O)[C@H](CC(=O)O)NC(=O)[C@H](CO)NC(=O)[C@@H](N)Cc1ccccc1)[C@@H](C)O)[C@@H](C)CC)C(=O)N[C@@H](CC(N)=O)C(=O)N[C@@H](Cc1c[nH]c2ccccc12)C(=O)N[C@@H](CC(C)C)C(=O)N[C@H](C(=O)N[C@@H](CCC(N)=O)C(=O)N[C@H](C(=O)N[C@@H](CCCCN)C(=O)N[C@H](C(=O)N[C@H](C(=O)N[C@@H](CC(=O)O)C(=O)O)[C@@H](C)O)[C@@H](C)CC)[C@@H](C)O)[C@@H](C)CC [GLP‐2(6‐33)] (H-FSDEMNTILDNLAARDFINWLIQTKITD-OH),501 nM,31.6 nM,46 ± 5.1%,39.8 nM,,,,,,
CC[C@H](C)[C@H](NC(=O)[C@H](Cc1ccccc1)NC(=O)[C@H](CC(=O)O)NC(=O)[C@H](CCCNC(=N)N)NC(=O)[C@H](C)NC(=O)[C@H](C)NC(=O)[C@H](CC(C)C)NC(=O)[C@H](CCCCNC(=O)CCCCCCCCCCCCCCC(=O)O)NC(=O)[C@H](CC(=O)O)NC(=O)[C@H](CC(C)C)NC(=O)[C@@H](NC(=O)[C@@H](NC(=O)[C@H](CC(N)=O)NC(=O)[C@H](CCSC)NC(=O)[C@H](CCC(=O)O)NC(=O)[C@H](CC(=O)O)NC(=O)[C@H](CO)NC(=O)[C@H](Cc1ccccc1)NC(=O)[C@H](CO)NC(=O)CNC(=O)[C@@H](N)CC(=O)O)[C@@H](C)O)[C@@H](C)CC)C(=O)N[C@@H](CC(N)=O)C(=O)N[C@@H](Cc1c[nH]c2ccccc12)C(=O)N[C@@H](CC(C)C)C(=O)N[C@H](C(=O)N[C@@H](CCC(N)=O)C(=O)N[C@H](C(=O)N[C@@H](CCCCN)C(=O)N[C@H](C(=O)N[C@H](C(=O)N[C@@H](CC(=O)O)C(=O)O)[C@@H](C)O)[C@@H](C)CC)[C@@H](C)O)[C@@H](C)CC [GLP‐2(3‐33)[N16K](C16‐diacid/16)] (H-DGSFSDEMNTILDK(C16 diacid)LAARDFINWLIQTKITD-OH),,,,,,,72%,,,
CC[C@H](C)[C@H](NC(=O)[C@H](Cc1ccccc1)NC(=O)[C@H](CC(=O)O)NC(=O)[C@H](CCCNC(=N)N)NC(=O)[C@H](C)NC(=O)[C@H](C)NC(=O)[C@H](CC(C)C)NC(=O)[C@H](CC(N)=O)NC(=O)[C@H](CC(=O)O)NC(=O)[C@H](CC(C)C)NC(=O)[C@@H](NC(=O)[C@@H](NC(=O)[C@H](CC(N)=O)NC(=O)[C@H](CCSC)NC(=O)[C@H](CCC(=O)O)NC(=O)[C@H](CC(=O)O)NC(=O)[C@@H](N)CO)[C@@H](C)O)[C@@H](C)CC)C(=O)N[C@@H](CC(N)=O)C(=O)N[C@@H](Cc1c[nH]c2ccccc12)C(=O)N[C@@H](CC(C)C)C(=O)N[C@H](C(=O)N[C@@H](CCC(N)=O)C(=O)N[C@H](C(=O)N[C@@H](CCCCN)C(=O)N[C@H](C(=O)N[C@H](C(=O)N[C@@H](CC(=O)O)C(=O)O)[C@@H](C)O)[C@@H](C)CC)[C@@H](C)O)[C@@H](C)CC [GLP‐2(7‐33)] (H-SDEMNTILDNLAARDFINWLIQTKITD-OH),,20 nM,27 ± 3.8%,,No inhibition,No inhibition,,,,126 nM
